The values below come from patent US20080187605A1, “PREVENTING PATHOLOGICAL NERVE CELL SUICIDE (NEUROAPOPTOSIS) IN IMMATURE NERVOUS SYSTEMS” (priority 2007, published 2008).

“Also recorded” adds a separate entry of the source. Like-named read-outs stand apart in the source and are kept apart here.

The subject of one data set is ERK-1. The settings on record: infant mice; within less than 30 minutes after ethanol.
The next data set concerns AKT. Particulars: infant mice; within 30 minutes after ethanol.
The next data set relates to ERK-2. The settings on record: infant mice; within less than 30 minutes after ethanol.
In data set [1] the test system is infant mouse brain. The settings on record: 6 hrs; for number of AC3-positive profiles, ethanol by itself: ethanol 250 mg/g, mean across 5 brain regions, vs saline.
Experimental: The mean number of AC3-positive profiles per mm^3 across all 5 brain regions was calculated for each treatment condition.
In data set [2] the test system is caudate/putamen of infant mouse brain. Nature of the data set: Xenon and isoflurane neuroapoptosis, activated caspase-3 stereology. The protocol:
Seven-day-old C57BL/6 mice were exposed to one of four conditions: air (control); 0.75% isoflurane; 70% xenon or 0.75% isoflurane+70% xenon (n≧9 per group) for 4 hours. All pups were euthanized 2 hours later for histopathological evaluation of the brains, using activated caspase-3 immunohistochemical staining to detect apoptotic neurons. Quantitative assessment of the number of apoptotic neurons in caudate/putamen under each condition was performed by unbiased stereology.
The results are depicted graphically in FIG. 7. In this graph, the number of apoptotic neurons under the control condition is given as 100% and the values for the experimental conditions are given as a percentage of the control.

In data set [3] the test system is infant mouse brain. Particulars: for number of AC3-positive profiles, ketamine by itself: five day old mice, ketamine 40 mg/kg, caudate nucleus and cerebral cortex, vs saline. The protocol: Five day old infant mice were treated either with saline or ketamine (40 mg/kg), or lithium carbonate (6 Meq/kg), or ketamine (40 mg/kg) plus lithium (6 Meq/kg). The animals were euthanized 6 hrs after initiation of drug exposure and the neuroapoptosis response in 2 different brain regions (caudate nucleus, cerebral cortex) was evaluated by stereological counting of neuronal profiles showing positive immunohistochemical staining for activated caspase 3 (AC3). The mean number of AC3-positive profiles per mm^3 across these 2 brain regions was calculated for each treatment condition.

Data set [4] has as its system infant mouse brain. Particulars: 6 hrs. The method, then: The animals were euthanized 6 hrs after initiation of drug exposure and the neuroapoptosis response in 2 different brain regions (caudate nucleus, cerebral cortex) was evaluated by stereological counting of neuronal profiles showing positive immunohistochemical staining for activated caspase 3 (AC3). The mean number of AC3-positive profiles per mm^3 across these 2 brain regions was calculated for each treatment condition.

Data set [5] concerns infant mouse brain (RSC/S and thalamus). The settings on record: infant mice; single dose of lithium carbonate before brain injury or up to 4 hours after injury. The source says: The method used herein for creating a consistent and reproducible head injury, in infant rats and mice, uses an electromagnetic impact device with a moving coil actuator, mounted on the arm of a stereotaxic holder. The actuator is positioned over the skull of an anesthetized animal, and has a blunt tip aimed at a specific location and angle on the skull. The actuator is driven electromagnetically, and impacts the skull at a computer-controlled speed, delivering a precise concussive force to a targeted zone on the skull.
As described in reports such as Bayly et al 2006, this type of concussive force can be applied to a single side of the head, creating nerve cell death by two different mechanisms. Brain cells directly beneath the skull at the site of impact die by an excitotoxic mechanism, which is confined to the local impact zone, and which leads to end-stage cell death within 4 hours. […]
In these tests, apoptotic neurons were detected by immunohistochemical staining of activated caspase-3 proteins. The quantitative counts were performed in RSC/S and thalamus tissues taken from both (i) the ipsilateral side of the brain, which was damaged, and (ii) the contralateral side of the brain, which was not damaged. […]

Data set [6] relates to caudate nucleus of infant mouse brain. Nature of the data set: Pilocarpine pretreatment against isoflurane- or midazolam-induced neuroapoptosis, activated caspase 3 IHC counts. The source says:
Agents that suppress neuronal activity, including GABAergic anesthetic agents such as midazolam and isoflurane, trigger neuroapoptosis in the infant mouse brain. If suppression of neuronal activity is a sufficient cause of the neuroapoptosis response, it is possible that agents that increase neuronal activity, such as the muscarinic cholinergic agonist, pilocarpine, might counteract this response. […] Control littermates received saline instead of pilocarpine, then were exposed to the same midazolam or isoflurane treatments. The animals were euthanized 6 hrs after initiation of anesthetic drug exposure and the neuroapoptosis response in the caudate nucleus was evaluated by stereological counting of neuronal profiles showing positive IHC staining for activated caspase 3.

The test system of a further data set is 7 day old rat brain. The settings on record: xenon administered 4 hours ahead as preconditioning stimulus; cited from earlier work.

As to `CCO` [ethanol], in the data set on ERK-1, the “activated isoform of ERK-1” value is on record as “rapid decrease”. In addition, the “activated isoform of AKT” value with AKT is “marked suppression”. In addition, the “activated isoform of ERK-2” value in the data set on ERK-2 is recorded as “rapid decrease”. The “number of AC3-positive profiles, ethanol by itself” value is “strong neuroapoptotic response” with infant mouse brain [1] (five day old mice) and “marked increase” in the data set on infant mouse brain [1] (five day old mice, listed as Ethanol).

As for `FC(F)OC(Cl)C(F)(F)F` (stereo not shown) [isoflurane], the “neuroapoptosis in the caudate/putamen, drug alone compared to controls” value in [2] (mouse, in vivo) is given as “significant increase”.

As for `CNC1(c2ccccc2Cl)CCCCC1=O` (stereo not shown) [ketamine], the “number of AC3-positive profiles, ketamine by itself” value with infant mouse brain [3] (6 hrs) was “severe and pathological neuroapoptosis”; in the data set with infant mouse brain [3] (6 hrs, listed as Ketamine), “marked increase”.

With `O=C([O-])[O-].[Li+].[Li+]` [lithium, lithium carbonate], the “apoptosis rate, lithium plus propofol” value with infant mouse brain [4] (lithium 6 Meq/kg plus propofol 50 mg/kg) is listed as “down to a level lower than the saline control level”. The “number of AC3-positive profiles, lithium by itself (spontaneous neuroapoptosis)” value in the data set with infant mouse brain [4] (lithium carbonate 6 Meq/kg, propofol experiment, vs saline controls) was “marked reduction”; in the data set on infant mouse brain [3] (lithium carbonate 6 Meq/kg, 6 hrs, ketamine experiment, vs saline controls), “marked reduction”; in the data set with infant mouse brain [1] (five day old mice, lithium carbonate 3 or 6 Meq/kg (equally strong), vs saline controls), “marked reduction”. Also, the “apoptotic neurodegeneration after traumatic brain injury” value in data set [5] is “prevented almost all”. In addition, in the data set on infant mouse brain [3] (lithium 6 Meq/kg), the “protection against ketamine-induced neuroapoptosis” value is listed as “total protection; also recorded: potently prevent”. Moreover, the “apoptosis rate, lithium plus ketamine” value in the data set on infant mouse brain [3] (lithium 6 Meq/kg plus ketamine 40 mg/kg, 6 hrs) is given as “down to the same level as for lithium alone”. Further, the “apoptosis rate, lithium plus ethanol” value is on record as “down to the same rate as in saline controls” in the data set on infant mouse brain [1] (lithium 3 Meq/kg plus ethanol 250 mg/g) and “down to lower than the saline control level” in the data set with infant mouse brain [1] (lithium 6 Meq/kg (higher dose) plus ethanol 250 mg/g).

In the case of `Cc1ncc2n1-c1ccc(Cl)cc1C(c1ccccc1F)=NC2` [midazolam], in [6] (infant mice, isoflurane 0.75% for 4 hrs or midazolam 9 mg/kg), the “apoptotic response in the caudate nucleus, anesthetic alone” value was “induced”.

Turning to `CC[C@@H]1C(=O)OC[C@@H]1Cc1cncn1C` [pilocarpine], the “neuroapoptotic response to isoflurane in the caudate nucleus” value in data set [6] (P5 mice, pilocarpine 20 mg/kg 2 hrs before isoflurane 0.75% for 4 hrs, euthanized 6 hrs after start of anesthetic, vs saline pretreatment) was “significantly reduced; also recorded: markedly reduces”. The “neuroapoptotic response to midazolam in the caudate nucleus” value in data set [6] (P5 mice, pilocarpine 20 mg/kg 2 hrs before midazolam 9 mg/kg, euthanized 6 hrs after start of anesthetic, vs saline pretreatment) is given as “significantly reduced; also recorded: markedly reduces”. In addition, in data set [6] (infant mice, pilocarpine given prior to GABA anesthetic drug), the “degeneration of caudate neurons caused by a GABA anesthetic drug” value is “completely prevented, or greatly reduced”. Further, in data set [6] (pilocarpine given at the same time as the anesthetic (protective if 2 or more hrs prior)), the “protective effect depending on timing of pilocarpine” value is given as “not if given at the same time”.

With `[Xe]` [xenon], the “hypoxic and/or ischemic neurodegeneration” value with 7 day old rat brain is recorded as “protect”. Also, in [2] (0.75% isoflurane+70% xenon for 4 hours), the “apoptotic response of xenon together with isoflurane, relative to xenon alone” value is “only moderately higher”. The “neurotoxic reaction of xenon plus isoflurane, greater than control” value in data set [2] (0.75% isoflurane+70% xenon for 4 hours, control (air) given as 100%) was “about 350%”. In addition, in data set [2] (70% xenon combined with 0.75% isoflurane), the “protection against isoflurane-induced neuroapoptosis” value is given as “markedly reduces; also recorded: strongly protects; also recorded: markedly protects”. Also, in [2] (70% xenon or 0.75% isoflurane alone for 4 hours), the “degree of neuroapoptotic response, drug alone” value is given as “relatively weak neuroapoptogenic potential; also recorded: mild degree; also recorded: mild neuroapoptotic response”. In addition, in data set [2] (seven-day-old mice, 70% xenon or 0.75% isoflurane for 4 hours, euthanized 2 hours later, vs air), the “neuroapoptosis in the caudate/putamen, drug alone compared to controls” value was “significant increase”.
